# Results reported in ChEMBL document CHEMBL3885861, “Open TG-GATES”.
# Species: Rattus norvegicus
# Experiment: Open TG-GATES - Regimen: Single
# Assay type: toxicity, organism-based, Sprague-Dawley
# Design: regimen Single, gender Male, age 6 weeks
# Conditions: in vivo, po, 10 mg/kg, route gavage, dose level Middle; for APTT / Bas / Eos / Fbg / Hb / Ht / Lym / MCH / MCHC / MCV / Mono / Neu / PT / Plat / RBC / Ret / WBC: tissue Blood; for KIDNEY_L / KIDNEY_R / KIDNEY_TOTAL: tissue Kidney; for LIVER: tissue Liver; for A/G / ALP / ALT / AST / BUN / CRE / Ca / Cl / DBIL / GLC / IP / K / LDH / Na / PL / RALB / TBIL / TC / TG / TP / gamma-GTP: tissue Plasma
structure (smiles),measurement,setting,value
C[C@H]1C(=O)O[C@@H]2CCN3CC=C(COC(=O)[C@](C)(O)[C@]1(C)O)[C@H]23 [MONOCROTALINE],TERMINAL_BW,3 h,213.5 g
same,APTT,3 h,19.4 s
same,Bas,3 h,0%
same,Eos,3 h,1.4%
same,Fbg,3 h,303.6 mg/dL
same,Hb,3 h,12.9 g/dL
same,Ht,3 h,37.7%
same,Lym,3 h,77.2%
same,MCH,3 h,21.5 pg
same,MCHC,3 h,34.2%
same,MCV,3 h,62.9 fL
same,Mono,3 h,2.2%
same,Neu,3 h,19%
same,PT,3 h,16.5 s
same,Plat,3 h,122.4 x10_4/uL
same,RBC,3 h,600.4 x10_4/ul
same,Ret,3 h,8.6%
same,WBC,3 h,80.3 x10_2/uL
same,KIDNEY_L,3 h,1 g
same,KIDNEY_R,3 h,0.9 g
same,KIDNEY_TOTAL,3 h,1.9 g
same,LIVER,3 h,9.8 g
same,A/G,3 h,1.3
same,ALP,3 h,1633.4 IU/L
same,ALT,3 h,44.4 IU/L
same,AST,3 h,72.8 IU/L
same,BUN,3 h,14.2 mg/dL
same,CRE,3 h,0.1 mg/dL
same,Ca,3 h,10.8 mg/dL
same,Cl,3 h,105.6 meq/L
same,DBIL,3 h,0.002 mg/dL
same,GLC,3 h,171.8 mg/dL
same,IP,3 h,8.9 mg/dL
same,K,3 h,4.3 meq/L
same,LDH,3 h,207.6 IU/L
same,Na,3 h,142.6 meq/L
same,PL,3 h,139 mg/dL
same,RALB,3 h,3 g/dL
same,TBIL,3 h,0.012 mg/dL
same,TC,3 h,80 mg/dL
same,TG,3 h,73.2 mg/dL
same,TP,3 h,5.3 g/dL
same,gamma-GTP,3 h,1 IU/L
same,TERMINAL_BW,6 h,207.4 g
same,APTT,6 h,21.7 s
same,Bas,6 h,0%
same,Eos,6 h,1.2%
same,Fbg,6 h,303.2 mg/dL
same,Hb,6 h,13.2 g/dL
same,Ht,6 h,38.9%
same,Lym,6 h,72.4%
same,MCH,6 h,20.9 pg
same,MCHC,6 h,34%
same,MCV,6 h,61.6 fL
same,Mono,6 h,3.2%
same,Neu,6 h,22%
same,PT,6 h,16.3 s
same,Plat,6 h,121.5 x10_4/uL
same,RBC,6 h,632 x10_4/ul
same,Ret,6 h,8.4%
same,WBC,6 h,93.8 x10_2/uL
same,KIDNEY_L,6 h,1 g
same,KIDNEY_R,6 h,1 g
same,KIDNEY_TOTAL,6 h,1.9 g
same,LIVER,6 h,9.1 g
same,A/G,6 h,1.3
same,ALP,6 h,1403 IU/L
same,ALT,6 h,36.6 IU/L
same,AST,6 h,70.8 IU/L
same,BUN,6 h,11.2 mg/dL
same,CRE,6 h,0.1 mg/dL
same,Ca,6 h,10.5 mg/dL
same,Cl,6 h,107 meq/L
same,DBIL,6 h,0.004 mg/dL
same,GLC,6 h,179.6 mg/dL
same,IP,6 h,9.5 mg/dL
same,K,6 h,4.3 meq/L
same,LDH,6 h,222.6 IU/L
same,Na,6 h,141.8 meq/L
same,PL,6 h,129 mg/dL
same,RALB,6 h,3 g/dL
same,TBIL,6 h,0.016 mg/dL
same,TC,6 h,72.2 mg/dL
same,TG,6 h,53.2 mg/dL
same,TP,6 h,5.3 g/dL
same,gamma-GTP,6 h,1 IU/L
same,TERMINAL_BW,9 h,203.7 g
same,APTT,9 h,20 s
same,Bas,9 h,0%
same,Eos,9 h,1%
same,Fbg,9 h,294.4 mg/dL
same,Hb,9 h,13.1 g/dL
same,Ht,9 h,38.6%
same,Lym,9 h,75.4%
same,MCH,9 h,21 pg
same,MCHC,9 h,34.1%
same,MCV,9 h,61.7 fL
same,Mono,9 h,2.8%
same,Neu,9 h,20.2%
same,PT,9 h,16.5 s
same,Plat,9 h,119.6 x10_4/uL
same,RBC,9 h,626 x10_4/ul
same,Ret,9 h,8.8%
same,WBC,9 h,71.7 x10_2/uL
same,KIDNEY_L,9 h,1 g
same,KIDNEY_R,9 h,1 g
same,KIDNEY_TOTAL,9 h,2 g
same,LIVER,9 h,9 g
same,A/G,9 h,1.3
same,ALP,9 h,1365.4 IU/L
same,ALT,9 h,33.6 IU/L
same,AST,9 h,62.8 IU/L
same,BUN,9 h,11.4 mg/dL
same,CRE,9 h,0.1 mg/dL
same,Ca,9 h,10.6 mg/dL
same,Cl,9 h,106.2 meq/L
same,DBIL,9 h,0.006 mg/dL
same,GLC,9 h,180.2 mg/dL
same,IP,9 h,9.7 mg/dL
same,K,9 h,4.2 meq/L
same,LDH,9 h,144 IU/L
same,Na,9 h,142.2 meq/L
same,PL,9 h,132.8 mg/dL
same,RALB,9 h,3.1 g/dL
same,TBIL,9 h,0.024 mg/dL
same,TC,9 h,73.2 mg/dL
same,TG,9 h,54.8 mg/dL
same,TP,9 h,5.4 g/dL
same,gamma-GTP,9 h,1.2 IU/L
same,TERMINAL_BW,24 h,217 g
same,APTT,24 h,21.3 s
same,Bas,24 h,0%
same,Eos,24 h,0.8%
same,Fbg,24 h,309.8 mg/dL
same,Hb,24 h,13.5 g/dL
same,Ht,24 h,39.6%
same,Lym,24 h,80.8%
same,MCH,24 h,21.1 pg
same,MCHC,24 h,34%
same,MCV,24 h,61.9 fL
same,Mono,24 h,2.8%
same,Neu,24 h,15.2%
same,PT,24 h,16.2 s
same,Plat,24 h,117.4 x10_4/uL
same,RBC,24 h,639.8 x10_4/ul
same,Ret,24 h,7.1%
same,WBC,24 h,75.2 x10_2/uL
same,KIDNEY_L,24 h,1 g
same,KIDNEY_R,24 h,1 g
same,KIDNEY_TOTAL,24 h,2 g
same,LIVER,24 h,10 g
same,A/G,24 h,1.3
same,ALP,24 h,1872.8 IU/L
same,ALT,24 h,45.2 IU/L
same,AST,24 h,75.4 IU/L
same,BUN,24 h,17 mg/dL
same,CRE,24 h,0.1 mg/dL
same,Ca,24 h,10.4 mg/dL
same,Cl,24 h,106.6 meq/L
same,DBIL,24 h,0.002 mg/dL
same,GLC,24 h,180.8 mg/dL
same,IP,24 h,6.9 mg/dL
same,K,24 h,4.3 meq/L
same,LDH,24 h,235.8 IU/L
same,Na,24 h,142.2 meq/L
same,PL,24 h,153 mg/dL
same,RALB,24 h,3.1 g/dL
same,TBIL,24 h,0.006 mg/dL
same,TC,24 h,79.4 mg/dL
same,TG,24 h,114.6 mg/dL
same,TP,24 h,5.5 g/dL
same,gamma-GTP,24 h,0.8 IU/L
